Test results as given in ChEMBL document CHEMBL4376833, “Influence of Non-natural Cationic Amino Acids on the Biological Activity Profile of Innate Defense Regulator Peptides” (J Med Chem, 2019).
Converted amounts (≈) assume the structure as drawn. The source made the active and inactive calls. Unless noted, the rule behind the calls is not given here. Non-standard residues stand in square brackets, D forms with d. Residues, ends and D or L forms follow the SMILES beside them. Orn = NCCC[C@H](N)C(=O)O; Dap = NC[C@H](N)C(=O)O

Assays:
Staphylococcus aureus [1] = test: Antibacterial activity against methicillin-resistant Staphylococcus aureus assessed as alteration in bacterial growth in TSB medium supplemented with 1% glucose at concentration of MIC in MHB medium measured after overnight incubation by CLSI protocol based broth dilution method; assay type: functional, organism-based
Staphylococcus aureus [2] = test: Antibacterial activity against methicillin-resistant Staphylococcus aureus assessed as bacterial growth inhibition in TSB medium supplemented with 1% glucose measured after overnight incubation by CLSI protocol based broth dilution method; assay type: functional, organism-based
[3] = Binding affinity to SDS micelle assessed as increase in fluorescence emission intensity at maximum wavelength at 1 uM in TRIS buffer at pH 7.4 measured after 24 hrs by Trp emission fluorescence spectroscopy relative to TRIS buffer
Staphylococcus aureus [4] = test: Antibacterial activity against methicillin-resistant Staphylococcus aureus assessed as alteration in bacterial growth in TSB medium supplemented with 1% glucose up to 64 uM measured after overnight incubation by CLSI protocol based broth dilution method; assay type: functional, organism-based
PBMC [5] = test: Immunostimulatory activity in human PBMC assessed as induction of chemokine MCP1 production at 10 to 40 uM incubated for overnight by ELISA; assay type: functional, cell-based
Staphylococcus aureus [6] = test: Antibacterial activity against methicillin-resistant Staphylococcus aureus assessed as bacterial growth inhibition in MHB medium measured after overnight incubation by CLSI protocol based broth dilution method; assay type: functional
Staphylococcus aureus [7] = test: Antibiofilm activity against methicillin-resistant Staphylococcus aureus assessed as inhibition of biofilm formation incubated for overnight by crystal violet staining based microtiter plate assay; assay type: functional, organism-based
[8] = Binding affinity to DPC micelle assessed as blue shift with maximum fluorescence emission at 1 uM in TRIS buffer at pH 7.4 measured after 24 hrs by Trp emission fluorescence spectroscopy
[9] = Stability of compound assessed as bovine trypsin-mediated compound hydrolysis at 10 uM incubated for 30 mins by RP-HPLC analysis; assay type: ADME, Bos taurus; conditions: cattle, read-out: Drug degradation
PBMC [10] = test: Cytotoxicity against human PBMC assessed as decrease in cell viability at 10 to 40 uM incubated for overnight by LDH assay; assay type: cell-based
PBMC [11] = test: Proinflammatory activity in human PBMC assessed as increase in LPS-stimulated IL1 production at 40 uM incubated for overnight in presence of Pseudomonas aeruginosa PAO1 LPS by ELISA relative to control; assay type: cell-based
[12] = Binding affinity to DPC micelle assessed as increase in fluorescence emission intensity at maximum wavelength at 1 uM in TRIS buffer at pH 7.4 measured after 24 hrs by Trp emission fluorescence spectroscopy relative to TRIS buffer
[13] = Binding affinity to SDS micelle assessed as blue shift with maximum emission at wavelength between 339 to 344 nm at 1 uM in TRIS buffer at pH 7.4 measured after 24 hrs by Trp emission fluorescence spectroscopy
PBMC [14] = test: Antiinflammatory activity against LPS-stimulated human PBMC assessed as suppression of IL1 production at 10 to 40 uM incubated for overnight in presence of Pseudomonas aeruginosa PAO1 LPS by ELISA; assay type: functional, cell-based
PBMC [15] = test: Proinflammatory activity in human PBMC assessed as increase in LPS-stimulated IL1 production at 40 uM incubated for overnight in presence nof Pseudomonas aeruginosa PAO1 LPS by ELISA; assay type: cell-based
[16] = Binding affinity to DPC micelle assessed as blue shift with maximum emission at wavelength of 352 nm at 1 uM in TRIS buffer at pH 7.4 measured after 24 hrs by Trp emission fluorescence spectroscopy
PBMC [17] = test: Cytotoxicity against human PBMC assessed as decrease in cell viability at 40 uM incubated for overnight by LDH assay relative to control; assay type: cell-based
Staphylococcus aureus [18] = test: Antibacterial activity against methicillin-resistant Staphylococcus aureus assessed as alteration in bacterial growth incubated for overnight by microtiter plate based spectrophotometric analysis; assay type: functional, organism-based
Staphylococcus aureus [19] = test: Antibiofilm activity against methicillin-resistant Staphylococcus aureus assessed as inhibition of biofilm formation by measuring residual biofilm growth incubated for overnight at 10-fold dilution by crystal violet staining based microtiter plate assay relative to control; assay type: functional
[20] = Binding affinity to DPC micelle assessed as blue shift with maximum emission at wavelength of 340 nm at 1 uM in TRIS buffer at pH 7.4 measured after 24 hrs by Trp emission fluorescence spectroscopy

Compound	Activity (Staphylococcus aureus [1])	inhibition (Staphylococcus aureus [2])	Activity (Staphylococcus aureus [4])	Activity (PBMC [5])	MIC (Staphylococcus aureus [6])	IC50 (Staphylococcus aureus [7])	Activity [8]	metabolised at 0.5 h, 10 µM [9]	Activity (PBMC [10])	fold change (FC) [12]	Activity [13]	Activity (Staphylococcus aureus [18])	residual biofilm growth (% of control) (Staphylococcus aureus [19])	inhibition (Staphylococcus aureus [7])	also measured
CC[C@H](C)[C@H](NC(=O)[C@H](CN)NC(=O)[C@@H](NC(=O)[C@H](C)NC(=O)[C@@H](NC(=O)[C@@H](NC(=O)[C@H](CC(C)C)NC(=O)[C@H](CN)NC(=O)[C@@H](N)C(C)C)[C@@H](C)CC)C(C)C)C(C)C)C(=O)N[C@@H](Cc1c[nH]c2ccccc12)C(=O)N[C@@H](CN)C(=O)N[C@@H](CN)C(N)=O (H-V[Dap]LIVAV[Dap]IW[Dap][Dap]-NH2)	Active	inactive	Active	Active	4 µM (≈ 5.02 µg/mL)	12.8 µM	Active	30%	Non-Toxic	2 to 6	Active				Activity [3]: inactive; fold change (FC) (PBMC [11]): 4 to 8
CC[C@H](C)[C@H](NC(=O)[C@H](CN)NC(=O)[C@@H](NC(=O)[C@H](CN)NC(=O)[C@@H](NC(=O)[C@@H](NC(=O)[C@H](CC(C)C)NC(=O)[C@H](CN)NC(=O)[C@@H](N)C(C)C)[C@@H](C)CC)C(C)C)C(C)C)C(=O)N[C@@H](Cc1c[nH]c2ccccc12)C(=O)N[C@@H](CN)C(=O)N[C@@H](CN)C(N)=O (H-V[Dap]LIV[Dap]V[Dap]IW[Dap][Dap]-NH2)	Active	inactive	Active	inactive	8 µM (≈ 10.2 µg/mL)	19.6 µM	Active	14%	Non-Toxic	2 to 6	Active				Activity [3]: inactive; Activity (PBMC [14]): inactive
CC[C@H](C)[C@H](NC(=O)[C@H](CCCN)NC(=O)[C@@H](NC(=O)[C@H](C)NC(=O)[C@@H](NC(=O)[C@@H](NC(=O)[C@H](CC(C)C)NC(=O)[C@H](CCCN)NC(=O)[C@@H](N)C(C)C)[C@@H](C)CC)C(C)C)C(C)C)C(=O)N[C@@H](Cc1c[nH]c2ccccc12)C(=O)N[C@@H](CCCN)C(=O)N[C@@H](CCCN)C(N)=O (H-V[Orn]LIVAV[Orn]IW[Orn][Orn]-NH2)	Active	inactive	Active	Active	8 µM (≈ 10.9 µg/mL)	32 µM	Active		Non-Toxic	2 to 6	Active				Activity [3]: inactive; Activity (PBMC [15]): Toxic
CC[C@H](C)[C@H](NC(=O)[C@H](CCCN)NC(=O)[C@@H](NC(=O)[C@H](CCCN)NC(=O)[C@@H](NC(=O)[C@@H](NC(=O)[C@H](CC(C)C)NC(=O)[C@H](CCCN)NC(=O)[C@@H](N)C(C)C)[C@@H](C)CC)C(C)C)C(C)C)C(=O)N[C@@H](Cc1c[nH]c2ccccc12)C(=O)N[C@@H](CCCN)C(=O)N[C@@H](CCCN)C(N)=O (H-V[Orn]LIV[Orn]V[Orn]IW[Orn][Orn]-NH2)	Active	inactive	Active	Active	32 µM (≈ 45.1 µg/mL)	32 µM	Active	60%	Non-Toxic	2 to 6	Active				Activity [3]: inactive; Activity (PBMC [15]): Toxic; Activity [16]: Active
H-VKLIVAVKIWKK-NH2	Active	inactive	Active	Active	4 µM	12.7 µM	Active	5%	Non-Toxic	2 to 6	Active				Activity [3]: inactive; Activity (PBMC [15]): Toxic
H-VKLIVKVKIWKK-NH2	Active	inactive	Active	Active	4 µM	9.9 µM	Active	18%		2 to 6	Active				fold change (FC) [3]: 2.5; Activity (PBMC [17]): 40%; fold change (FC) (PBMC [11]): 4 to 8
H-VRLIKAVRIWRR-NH2												Active	102%	Dose-dependent effect	
H-VRLIRAVRIWRR-NH2												Active	102%	Dose-dependent effect	
H-VRLIVAKRIWRR-NH2												Active	101.6%	Dose-dependent effect	
H-VRLIVARRIWRR-NH2												Active	102.6%	Dose-dependent effect	
H-VRLIVAVKIWRR-NH2												Active	17.9%	Dose-dependent effect	
H-VRLIVAVRIKRR-NH2												Active	44.7%	Dose-dependent effect	
H-VRLIVAVRIRRR-NH2												Active	33.2%	Dose-dependent effect	
H-VRLIVAVRIWKR-NH2												Active	11.8%	Dose-dependent effect	
H-VRLIVAVRIWRK-NH2												Active	6%	Dose-dependent effect	
H-VRLIVAVRIWRR-NH2	Active	inactive	Active	inactive	4 µM	4 to 6 µM	Active	60%			Active	Active	8.5%	Dose-dependent effect	Activity [20]: Active
H-VRLIVAVRKWRR-NH2												Active	95.8%	Dose-dependent effect	
H-VRLIVAVRRWRR-NH2												Active	70.2%	Dose-dependent effect	
H-VRLIVKVRIWRR-NH2	Active	inactive	Active	inactive	4 µM	4 to 6 µM	Active	60%	Non-Toxic	2 to 6	Active	Active	6.1%	Dose-dependent effect	fold change (FC) [3]: 2.5; Activity (PBMC [14]): Active
H-VRLIVRVRIWRR-NH2	Active	inactive	Active	Active	2 µM	4 to 6 µM	Active	90%	Non-Toxic	2 to 6	Active	Active	9.2%	Dose-dependent effect	Activity [3]: inactive; Activity (PBMC [14]): Active
H-VRLKVAVRIWRR-NH2												Active	10.7%	Dose-dependent effect	
H-VRLRVAVRIWRR-NH2												Active	15%	Dose-dependent effect	
H-VRRIVAVRIWRR-NH2												Active	83.7%	Dose-dependent effect	
